# Assay results reported in the supplement of paper PMC11208160.
# Assay: recombinant UMI read abundance after kanamycin selection (control-corrected) (log10(CPM+1)); higher = more efficient recombination; extreme values may be limits of the assay; sequences stand for … in AGTGCAGAGAAAATCGGCCAGTTTTCTCTGCCTGCAGTCCGCATGCCGTGGGACCCCTTGGGTTCTAACCTGTTGCCTAGATTTATGCAGCGGACTGCCTTTCTCCCAAAGTGATAAACCGG…AGGTTGGTTTCACT; site = the 11-nt donor
# How it was run: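 Sequencing read counts were converted to CPM, averaged over two replicates and scaled by control-derived factors. Results are given as log10(CPM+1). The reads covered the donor–target junction of recombinant UMIs from a pooled Escherichia coli screen of donor and donor-binding-loop pairs for the IS621 bridge recombinase.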
# 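Further: IS621 bridge recombinase in Escherichia coli cells against a fixed T5 target plasmid.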
row,Sequence,recombinant UMI read abundance (log10)
1,CGATGGTCATGGACCGGTTTTCCCGGTAATCCGTATTTGCT (site CGATGGTCTAG),2.8
2,CGCCTTTCATGGACCGGTTTTCCCGGTAATCCGTATTTGAC (site CGCCTTTCTGT),0
3,TCCCCTACATGGACCGGTTTTCCCGGTAATCCGTATTTGCC (site TCCCCTACTGG),0
4,ATCAAAGCATGGACCGGTTTTCCCGGTAATCCGTATTTGAG (site ATCAAAGCTCT),2.17
5,TTCACCGCATGGACCGGTTTTCCCGGTAATCCGTATTTGCG (site TACACCGCTCG),0.00969
6,CGTGTCACATGGACCGGTTTTCCCGGTAATCCGTATTTGGT (site CGTGTCACTAC),1.31
7,CCCATACCATGGACCGGTTTTCCCGGTAATCCGTATTTGTC (site CCCATAACTGA),0
8,CTAGCATCATGGACCGGTTTTCCCGGTAATCCGTATTTGAC (site CTAGAATCTGT),0.337
9,CAAGTATCATGGACCGGTTTTCCCGGTAATCCGTATTTGAC (site CCAGTATCTGT),0.955
10,GAGCTCACATGGACCGGTTTTCCCGGTAATCCGTATTTGAT (site GAGCTGACTAT),0.0158
11,ATCCAAGCATGGACCGGTTTTCCCGGTAATCCGTATTTGAT (site ATCCAAGCTAT),1.36
12,ATTGAAACATGGACCGGTTTTCCCGGTAATCCGTATTTGGT (site ATTGACACTAC),0.0867
13,GGGTACGCATGGACCGGTTTTCCCGGTAATCCGTATTTGTA (site GGGTACGCTTA),2.47
14,CCAAATTCATGGACCGGTTTTCCCGGTAATCCGTATTTGTT (site CCAAATTCTAA),0
15,TTAGCTGCATGGACCGGTTTTCCCGGTAATCCGTATTTGTG (site TTAGCTGCTCA),0.543
16,TTCCTTTCATGGACCGGTTTTCCCGGTAATCCGTATTTGAT (site TTCCTTTCTAT),0

row,Sequence,recombinant UMI read abundance (log10)
1,CTGGAAACATGGACCGGTTTTCCCGGTAATCCGTATTTGCA (site CTGGCAACTTG),0.416
2,GCGGAGCCATGGACCGGTTTTCCCGGTAATCCGTATTTGGG (site GCGCAGCCTCC),0
3,CTAGTATCATGGACCGGTTTTCCCGGTAATCCGTATTTGAC (site CTAGTGCCTGT),0
4,GGTCCAACATGGACCGGTTTTCCCGGTAATCCGTATTTGTT (site GGTCCAACTGA),0.00734
5,GTATCAGCATGGACCGGTTTTCCCGGTAATCCGTATTTGTC (site GTATCAGCTGA),3.03
6,ATTGAGACATGGACCGGTTTTCCCGGTAATCCGTATTTGGT (site AGTGAGACTAC),0.609
7,TACCTGACATGGACCGGTTTTCCCGGTAATCCGTATTTGGC (site TACCTGACTGC),0
8,GAGCGCACATGGACCGGTTTTCCCGGTAATCCGTATTTGAT (site GAGCCCACTAT),0.285
9,CGTTGAACATGGACCGGTTTTCCCGGTAATCCGTATTTGTT (site CGTAGAACTAA),0.00276
10,GTACAGTCATGGACCGGTTTTCCCGGTAATCCGTATTTGAT (site GTACAGTCTAT),2.73
11,CGCTTCTCATGGACCGGTTTTCCCGGTAATCCGTATTTGGG (site CACTTCTCTCC),0.0042
12,GGCCATCCATGGACCGGTTTTCCCGGTAATCCGTATTTGTT (site GGCCATCCTAA),0.0172
13,CACGTCACATGGACCGGTTTTCCCGGTAATCCGTATTTGGG (site CAAGTCACTCC),0.0977
14,TAATACTCATGGACCGGTTTTCCCGGTAATCCGTATTTGCA (site TAATACTCTTG),2.63
15,AGCTCAGCATGGACCGGTTTTCCCGGTAATCCGTATTTGGG (site AGATCAGCTCC),0.0131
16,TACTGAGCATGGACCGGTTTTCCCGGTAATCCGTATTTGGG (site TAGTGAGCTCC),0.0147
